According to patent US20050054845A1, “Thymosin augmentation of genetic immunization” (Rhode Island Hospital, priority 2001, published 2005):
Ends that are not written are not given here.

Legend:
[1] = test system: SP2—NS5 cells; experiment: Cytotoxicity (CTL) 51Cr-release assay after genetic immunization; format: in vivo, Balb/c mice; conditions: co-administration of 5 μg thymosin α1 i.p. twice/week with 50 μg pAp031NS5 DNA vs DNA alone; L/T ratios 1:10 and 1:100; 4-hour 51Cr-release; FIG. 4
Protocol: (§1) To enhance the cellular uptake of plasmid DNA, the quadriceps muscle of Balb/c mice was injected at multiple sites with a total of 100 μL of 0.25% hupivacaine. Four days later, the plasmid constructs were injected into the same region at five different sites in a final volume of 100 μL 0.9% NaCl. Two weeks later the mice were boosted in the opposite leg with plasmid DNA. The mice were killed ten days after the last immunization. There were three groups of mice each containing five animals. Group 1=mice immunized with 100 μg mock DNA; Group 2=mice immunized with 50 μg pAp031NS5 and 50 μg mock DNA; Group 3=mice immunized with 50 μg pAp031 NS5 and 50 μg mock DNA, and received 5 μg thymosin α1 i.p. twice/week. Animals were immunized three times two weeks apart, and studies were performed ten days after the final immunization.
Spleen cells from immunized mice were suspended in complete DMEM containing 10% FCS and 50 μmol/L 2-mercaptoethanol; the cells were then analyzed for cytotoxic activity 5 days after in vitro stimulation. […] Percent cytotoxicity was calculated as: [formula] […] Total release represents the radioactivity released after total lysis of target cells with 5% TritonX-100. […]
Spontaneous release represents the radioactivity present in medium derived from target cells only. […]

[2] = in vivo; cited from earlier work
[3] = test system: spleen cells stimulated with recombinant NS5; experiment: T-cell proliferation assay after genetic immunization; format: in vivo, Balb/c mice; conditions: co-administration of 5 μg thymosin α1 i.p. twice/week with 50 μg pAp031NS5 DNA vs DNA alone; all three challenge concentrations; [3H]-thymidine incorporation; FIG. 3
Protocol: as §1
Mice were anesthetized with isoflurane (Aerrane, Anaquest, N.J.), blood was removed by retrobulbar puncture and spleen cells were harvested. Red blood cells were removed by incubation in […] NH4C1/0.17 mol/L Tris (pH 7.4) for 10 minutes at 37° C. […] The [^3H]-thymidine incorporation into DNA was measured after harvesting. […] Incorporation of radioactivity was corrected for background activity (Δ cpm). […]

## thymosin α1 (SDAAVDTSSEITTKDLKEKKEVVEEAEN; ends and bridges not checked; UniProt P06454 2-29, looked up) [α thymosin, 28 amino acid acidic polypeptide immune modifier derived from the thymus gland, molecular weight 3100]
[1]
  increase of percent cytotoxicity: ≥ 100%
[2]
  dose found to be safe for humans: ≤ 16 mg/kg body weight/day
[3]
  increase of CD4 proliferative response: approximately 100%
